Experimental data from patent US6313094A, “β-amino-α-hydroxycarboxylic acid derivatives and HIV protease inhibitors” (priority 1990, dated 2001).
Read-outs that look alike come from different tables or passages of the source. *1 amine or outer side, *2 acyl side, *3 side chain or, on linkers, in order; H or OH if unused. Where a SMILES comes first, the peptide text is derived from it. [ ]: non-standard residue; d: D form. The star is where a group is joined. X1 = O=C([C@@H](O)[C@H](Cc1ccccc1)N[*:1])[*:2]; PhAc = O=C(Cc1ccccc1)*

What was measured:
[1] = biological target: T1, chemically synthesized HIV protease (Human immunodeficiency virus type 1 group M subtype B, UniProt P12497, C555A/C583A); format: biochemical
T1 construct: The HIV protease was chemically synthesized; made in house; host or cells: chemical (peptide) synthesis, no expression host
Experimental: (§1) The HIV protease was chemically synthesized by replacement of two cysteine residues in the natural sequence [Science, 230, 949 (1985)] with alanine residues. The reaction mixture contained 100 mM MES buffer (pH 5.5), 40 mM of substrate (Ac-[…]NH, trifluoroacetate), inhibitors at varying concentrations dissolved in DMSO and 9.2 μg of the HIV protease in a total volume of 15 μl. Incubation was carried out at 37° C. for 60 min. The reaction was started by the addition of the enzyme and terminated by 15 μl of acetonitrile. The amount of a fragment peptide produced was measured by reversed-phase HPLC analysis using an internal standerd. The HPLC condition was as followes.
Solvent A: 0.1% trifluoroacetic acid aqueous solution
Gradient: B was increased in 1.0%/min from 100% of A,

[2] = biological target: recombinant HIV protease (Human immunodeficiency virus type 1 group M subtype B, UniProt P12497); settings: inhibitor 5 μM (final concentration); 2.0 μg enzyme
Experimental: as §1

[3] = inhibitor 5 μM (final concentration)

Compound | Residual Activity (%) ([1]; inhibitor 50 nM) | Residual Activity (%) [1, 3] [%] | further results
1-Isoquinolinecarbonyl-Asn-(2S,3S)-AHPBA-Pro-NH-tBu [Example 140] | 72.8 | – | –
1-NaPhthoxyacetyl-Prg-(2S,3S)-AHPBA-Thz-NH-tBu [Example 180] | 26.0 | – | –
1-Naphtboxyacetyl-Msv-(2S,3S)-AHPBA-Thz-NH-tBu [Example 155] | 7.3 | – | –
1-Naphthoxyacetyl-Ile-(2S,3S)-AHPBA-Thz-NH-tBu [Example 161] | 7.0 | – | –
1-Naphthoxyacetyl-Msa-(2S,3S)-AHPBA-Dmp-NH-tBu [Example 183] | 4.3 | – | –
1-Naphthoxyacetyl-Msa-(2S,3S)-AHPBA-Thz-NH-chex-ol [Example 158] | – | < 10 | –
1-Naphthoxyacetyl-Msa-(2S,3S)-AHPBA-Thz-Pip-O--CH3 [Example 159] | 90.8 | – | –
1-Naphthoxyacetyl-Mta-(2S,3S)-AHPBA-Thz-NH-tBu [Example 162] | 2.9 | – | –
1-Naphthoxyacetyl-Mtv-(2S,3S)-AHPBA-Thz-NH-tBu [Example 154] | 35.4 | – | –
1-Napthoxyacetyl-Sma-(2S,3S)-AHPBA-Pro-NH-tBu [Example 98] | 70.5 | – | –
2-Naphthoxyacetyl-Msa-(2S,3S)-AHPBA-Pro-NH-tBu [Example 131] | 28.8 | – | –
2-Quinolinecarbonyl-Asn-(2S,3S)-AHPBA-Dtc-NH-tBu [Example 118] | 1.8 | – | –
3-Phenylpropionyl-Msa-(2S,3S)-AHPBA-Pro-Ile-Val-NH2 [Example 62] | – | 3.2 | –
3-Phenylpropionyl-Smc(O)-(2S,3S)-AHPBA-Pro-Ile-Val-NH2 [Example 61] | – | 90.9 | –
5Isoquinoline-O--CH2 CO-Asn-(2S,3S)-AHPBA-Thz-NH-tBu [Example 192] | – | – | inhibitory activity against the HIV protease ([1]; expected, compound only said to be preparable): high inhibitory activity
CC[C@H](C)[C@H](NC(=O)[C@@H]1CCCN1C(=O)[C@@H](O)[C@H](Cc1ccccc1)NC(=O)[C@H](CO)NC(=O)Cc1ccccc1)C(=O)N[C@H](C(N)=O)C(C)C [Example 20, Phenylacetyl-Ser-(2S,3S)-AHPBA-Pro-Ile-Val-NH2] (PhAc-S[X1]PIV-NH2) | – | 42.8 | Residual Activity (%) ([1]; inhibitor 1 mM): 2.8%
CC(C)(C)NC(=O)[C@@H]1CCCN1C(=O)[C@@H](O)[C@H](Cc1ccccc1)NC(=O)[C@H](CC(N)=O)NC(=O)OCc1ccccc1 [Example 55, Benzyloxycarbonyl-Asn-(2S,3S)-AHPBA-Pro-NH-tBu] | – | 3.5 | –
CC(C)(C)NC(=O)[C@@H]1CCCN1C(=O)[C@H](O)[C@H](Cc1ccccc1)NC(=O)[C@H](CC(N)=O)NC(=O)OCc1ccccc1 [Example 56, Benzyloxycarbonyl-Asn-(2R,3S)-AHPBA-Pro-NH-tBu] | – | 95.1 | –
NC(=O)C[C@H](NC(=O)OCc1ccccc1)C(=O)N[C@@H](Cc1ccccc1)[C@H](O)C(=O)N1CCC[C@H]1C(=O)NC1CCCCC1 [Example 84, Benzyloxycarbonyl-Asn-(2S,3S)-AHPBA-Pro-NH--C6 H11] | – | 9.6 | –
CC(C)NC(=O)[C@@H]1CCCN1C(=O)[C@@H](O)[C@H](Cc1ccccc1)NC(=O)[C@H](CC(N)=O)NC(=O)OCc1ccccc1 [Example 85, Benzyloxycarbonyl-Asn-(2S,3S)-AHPBA-Pro-NH--CH(CH3)2] | – | 10.0 | –
CC(C)(C)NC(=O)[C@@H]1CCCN1C(=O)[C@@H](O)[C@H](Cc1ccccc1)NC(=O)[C@H](CS(C)(=O)=O)NC(=O)OCc1cccc2ccccc12 [Example 90, 1-Naphthylmethyloxycarbonyl-Msa-(2S,3S)-AHPBA-Pro-NH-tBu] | – | 1.5 | –
Benzyloxycarbonyl-Asn-(2S3S)-AHPBA-Pro-NHsBu [Example 176] | 82.6 | – | –

Compound | Residual Activity (%) ([1]; inhibitor 50 nM) | Residual Activity (%) [1, 3] [%] | further results
Benzyloxycarbonyl-Asn-(2S,3S)-AHPBA-(D)-Pip-NH-tBu [Example 79] | – | 84.0 | –
Benzyloxycarbonyl-Asn-(2S,3S)-AHPBA-Cpp-NH-tBu [Example 185] | 96.0 | – | –
Benzyloxycarbonyl-Asn-(2S,3S)-AHPBA-Dtc-NH-tBu [Example 104] | 3.8 | – | –
Benzyloxycarbonyl-Asn-(2S,3S)-AHPBA-Pro-Aib-NH2 [Example 93] | – | < 10 | –
Benzyloxycarbonyl-Asn-(2S,3S)-AHPBA-Pro-Ile-NH--CH2 --C6 H11 [Example 32] | – | 4.0 | residual enzymic activity [2]: 11.0%
Benzyloxycarbonyl-Asn-(2S,3S)-AHPBA-Pro-NH--C(CH3)2 --CH2 OH [Example 99] | 62.2 | – | –
Benzyloxycarbonyl-Asn-(2S,3S)-AHPBA-Pro-NH--CH2 --C(CH3)3 [Example 83] | – | 12.4 | –
Benzyloxycarbonyl-Asn-(2S,3S)-AHPBA-Pro-NH--CH(C2 H5)2 [Example 89] | – | < 10 | –
Benzyloxycarbonyl-Asn-(2S,3S)-AHPBA-Pro-NH-cycloropyl [Example 88] | – | < 10 | –
Benzyloxycarbonyl-Asn-(2S,3S)-AHPBA-Pro-NH-tAmyl [Example 87] | – | 5.8 | –
Benzyloxycarbonyl-Asn-(2S,3S)-AHPBA-Thz-NH-tBu [Example 82] | – | 1.3 | –
Benzyloxycarbonyl-Val-(2R,3S)-AHPBA-Phe-NH--CH2 --CH(CH3)2 [Example 54] | – | 84.9 | –
Benzyloxycarbonyl-Val-(2R,3S)-AHPBA-Phe-Val-NH--CH2 --CH(CH3)2 [Example 53] | – | 83.4 | –
Benzyloxycarbonyt-Asn-(2S,3S)-AHPBA-Ccp-NH-tBu [Example 187] | 99.0 | – | –
Bis(4-chlorophenyl)methyloxyacetyl-Asn-(2S,3S)-AHPBA-Pro-NH-tBu [Example 94] | 37.0 | – | –
Boc-Sma-(2S,3S)-AHPBA-Pro-NH-tBu [Example 97] | – | 92.9 | –
Furancarbonyl-Asn-(2S,3S)-AHPBA-Pro-Ile-Val-NH2 [Example 65] | – | 9.3 | –
PhCH2 -O--CO-Asn-(2S,3S)-AHPBA-(D)-Tic-NH-tBu [Example 103] | 91.4 | – | –
PhCH2 -O--CO-Asn-(2S,3S)-AHPBA-(L)-Tic-NH-tBu [Example 102] | 89.2 | – | –
PhCH2 -O--CO-Asn-(2S,3S)-AHPBA-Pro-NH--CH2 --C6 H11 [Example 49] | – | 51.9 | –
Thiophenecarbonyl-Asn-(2S,3S)-AHPBA-Pro-Ile-Val-NH2 [Example 67] | – | 4.9 | –
